# Residues, ends and D or L forms follow the SMILES beside them. No end group written: not given here. K(CB-TE2A) = lysine carrying the CB-TE2A chelator (for 64Cu); Cy7 = near-infrared fluorescent dye for NIRF imaging; PEGn = polyethylene glycol (n units) spacer
# Assays:
# [1] = system: MDA-MB-231 cells; experiment: Cellular toxicity of LDLLDL peptide by microscopy; format: cell-based, human; conditions: 0.1-1000 μM/mL, up to highest concentration tested
# Text: (§1) A FPR-targeted peptide and its optical imaging probe were designed and synthesized: The inventors synthesized an FPR-targeted peptide agent Leu-Asp-Leu-Leu-Asp-Leu (LDLLDL: SEQ ID NO:1), which is an antagonist peptide for FPR1 receptor. The inventors have also developed an NIR optical imaging probe to evaluate the targeting capability. Specifically, the base peptide ligand was synthesized by the solid-phase method. After the peptide sequence was assembled on resin, the ivDDE protecting group was removed from the w-amino group of the lysine by treatment with hydrazine. The inventors tested varying concentrations (0.1-1000 μM/mL) of LDLLDL (SEQ ID NO:1) peptide in all four breast cancer cell types (BT474, BT549, MDA-MB-231 and MCF-7) to assess cellular toxicity.
# [2] = system: BT474 cells; experiment: Cellular toxicity of LDLLDL peptide by microscopy; format: cell-based, human; conditions: 0.1-1000 μM/mL, up to highest concentration tested
# Text: as §1
# [3] = system: BT549 cells; experiment: Cellular toxicity of LDLLDL peptide by microscopy; format: cell-based, human; conditions: 0.1-1000 μM/mL, up to highest concentration tested
# Text: as §1
# [4] = system: MCF-7 cells; experiment: Cellular toxicity of LDLLDL peptide by microscopy; format: cell-based, human; conditions: 0.1-1000 μM/mL, up to highest concentration tested
# Text: as §1
# [5] = Solubility of the peptide; format: physicochemical
# [6] = system: 4T1 breast cancer tumor xenograph; experiment: In vivo fluorescence imaging in tumor xenograph mice; parameters: species or system Balb/c mice; conditions: 30 ul of peptide (2 nMoles), within 6 hr, mammary gland tumors
# Method: (§2) FIG. 10 depicts one of 10 mice experiments in accordance with various embodiments. Ten mice (Balb/c mice) were implanted with breast cancer cells (4T1) to develop breast cancer tumor xenograph model. The tumors were allowed to grow for 4 weeks before the mice were injected with 30 ul of peptide (2 nMoles). The animals were imaged using mouse fluorescence imaging after 1, 2, 3, 4, 6 hr.
# [7] = system: normal human mammary epithelial cell (HEMC); experiment: Cellular uptake of FPR peptide by near infrared fluorescence imaging; format: cell-based
# Method: (§3) To study the ability of the FPR peptide to internalize and fluorescently labeled cancer and macrophage cells, various breast cancer cell lines were treated with the peptide (5 uMol/uL) for 4 hrs. […] Fluorescence uptake was not observed in the normal human mammary epithelial cells (HEMC-control), as expected, since there is no expression of FPR receptor for HEMC.
# (§4) LDLLDL-Cy7 ([SEQ ID NO:1]-Cy7) was used to treat five cancer cell lineages (MDA-MB-231, BT549, HCC1500, BT474, and MCF-7) and normal human mammary epithelial cell (HEMC) for 3 hrs at the concentrations of 5 and 10 μM/mL. After washing 3 times with cold PBS, all cells were imaged using near infrared fluorescence imaging and target specificity of the FPR peptide was evaluated.
# [8] = system: human TNBC cells; experiment: Target specificity of the FPR peptide by near infrared fluorescence imaging; format: cell-based; conditions: 3 hrs, 5 and 10 μM/mL
# Method: as §4
# [9] = system: MDA-MB-231 cells; experiment: Cellular uptake of FPR peptide by near infrared fluorescence imaging; format: cell-based, human; conditions: 3 hrs, 5 and 10 μM/mL, FIG. 4
# Method: as §3, §4
# [10] = system: BT474 cells; experiment: as above; format: cell-based, human
# Method: as §3, §4
# [11] = system: HCC1500 cells; experiment: as above; format: cell-based, human
# Method: as §3, §4
# [12] = system: MCF-7 cells; experiment: as above; format: cell-based, human; conditions: 3 hrs, 5 and 10 μM/mL, FIG. 4
# Method: as §3, §4
# [13] = system: MDA-MB-231 breast cancer tumor xenograph; experiment: In vivo fluorescence imaging and organ biodistribution in tumor xenograph mice
# Method: FIG. 5 depicts in accordance with various embodiments of the invention, in vivo fluorescent image of xenograft mice after 6 hours of tail vein injection. Mice were injected with fluorescent dye (Cy7) only (left panel), and peptide-Cy7 (right panel).
# FIG. 6 depicts in accordance with various embodiments of the invention, the biodistribution in tumor-bearing mice after 7 hours of tail vein injection. Mice were injected with fluorescent dye only (left panel), and peptide LDLLDL-Cy7 (right panel)([SEQ ID NO:1]-Cy7).
# Ten mice were implanted with breast cancer cells (MDA-MB-231) to develop breast cancer tumor xenograph models. The tumors were allowed to grow for 4 weeks before the mice were injected with 30 ul of peptide (2 nMoles). The animals were imaged using mouse fluorescence imaging after 1, 2, 3, 4, and 6 hours. FIG. 5 show the results of one of those mice experiments. […] After 7 hours the animals were sacrificed and organs extracted and imaged.
# [14] = system: macrophage cell line RAW264.7; experiment: Cellular uptake of FPR peptide by near infrared fluorescence imaging; format: cell-based; conditions: peptide 5 uMol/uL, 4 hrs
# Method: as §3
# [15] = system: E0771 breast cancer tumor xenograph; experiment: In vivo fluorescence imaging in tumor xenograph mice; parameters: species or system C57BL/6 mice; conditions: 30 ul of peptide (2 nMoles), within 6 hr, rear bilateral flank tumors
# Method: as §2, with “FIG. 9” for “FIG. 10”, “mice (C57BL/6” for “mice (Balb/c”, “cells (E0771)” for “cells (4T1)”
# [16] = system: ANXA1-knockdown breast cancer xenograft; experiment: PET uptake in ANXA1-knockdown xenograft model; format: in vivo, mice
# Text: Without being bound to any particular theory, the inventors believe that ANXA1 is associated with tumorigenesis and progression, and the synthesized peptide imaging probe can be used as a surrogate for monitoring the tumor expression with ANXAL. To characterize target specificity, the inventors developed the breast cancer xenograft model with ANXA1 overexpression as well as an ANXA1-knockdown model using a shRNA lentiviral vector technique. […] The inventors assess the pharmacokinetic profile and tumor specific targeting potency of the new imaging probe, and its effectiveness in evaluation of tumorigenesis and progression of aggressive breast cancer. See FIG. 8 for experimental design. […]
# Evaluation of tumor uptake in ANXA1 knockdown xenograft model: The inventors evaluate the effects of ANXA1 in regulating tumorigenesis and progression using the ANXA1-KD/control breast cancer xenograft model. […] Tumor growth and/or progression of the disease is monitored up to 8 weeks after cell inoculation. […] On completion of PET/CT at 24 h after injection, a tissue radioactivity assay is performed, and tissue radioactivity is calculated and expressed as decay-corrected percentage injected dose per gram of tissue (% ID/g). The tumor radioactivity and size are compared between ANXA1-KD tumor and ANXA1-SCR tumor. […]
# [17] = system: tumor-expressing ANXA1; experiment: In vitro target binding specificity in breast cancer cell models; format: cell-based; conditions: human breast cancer cell models
# Method: In vitro target specificity binding is evaluated in two steps: Step 1: Characterize the ANXA1/FPR1 expression baseline by examining expression levels of FPR1 and ANXA1 in five human breast cancer cell lines, MDA-MB-231, HCC1500, BT549, MCF-7, BT474, and HEMC. Obtaining protein expression by performing IHC staining using the anti-ANXA1 and anti-FPR1 antibody. The cell lines with positive staining are identified. Further, the […] of ANXA1 and FPR1 are evaluated by western blotting and qRT-PCR. The correlation between FPR1 and ANXA1 are validated, and the cells with highest FPR1 and ANXA1 expression are selected for further in vivo study. The results establish the baseline of expression of ANXA1 and FPR1 in the tested breast cancer cell lines.
# Step 2: Characterization of the binding specificity of the LDLLDL-^64Cu ([SEQ ID NO:1]-^64Cu) is tested on the cell lines described above. The cells are cultured in two groups of Petri dishes. […] The suspended cells are measured for radioactivity using a gamma-counter. Disintegrations per minute per cell are calculated and reported as the peptide uptake for each cell line. […] The cell-associated radioactivity is measured, and the binding affinity is determined by the Grafit software (Erithacus, Inc). […]
# [18] = system: xenograft breast cancer model with ANXA1 overexpression; experiment: PET uptake in breast cancer xenograft model with ANXA1 overexpression; format: in vivo, mice
# Text: Without being bound to any particular theory, the inventors believe that ANXA1 is associated with tumorigenesis and progression, and the synthesized peptide imaging probe can be used as a surrogate for monitoring the tumor expression with ANXAL. To characterize target specificity, the inventors developed the breast cancer xenograft model with ANXA1 overexpression as well as an ANXA1-knockdown model using a shRNA lentiviral vector technique. […] The inventors assess the pharmacokinetic profile and tumor specific targeting potency of the new imaging probe, and its effectiveness in evaluation of tumorigenesis and progression of aggressive breast cancer. See FIG. 8 for experimental design.
# Breast cancer xenograft model: In vitro studies described above identified the expression of ANXA1/FPR1 for all tested cells. […] Body weight and tumor volume is measured weekly. […]
# Blood clearance and biodistribution: i) Blood clearance: After anesthesia (isoflurane 2-3%), 2 groups of 5 mice each are injected with radiolabeled LDLLDL-^64Cu ([SEQ ID NO:1]-^64Cu) (˜5 μCi) via tail vein. Retro-orbital blood samples (25 μL) are collected at various time points such as 5, 15, 30, 60, 120, 240 min and 24 h after injection and radioactivity of all samples are counted in a gamma counter (Perkin-Elmer). […] At 1 h, 2 h, 4 h, 24 h after injection, mice are scanned by small-animal PET followed by tissue radioactivity assay. […]
# [19] = organs extracted after 7 hours, FIG. 6
compound,measurement,setting,value
"CC(C)C[C@H](NC(=O)[C@H](CC(=O)O)NC(=O)[C@H](CC(C)C)NC(=O)[C@H](CC(C)C)NC(=O)[C@H](CC(=O)O)NC(=O)[C@@H](N)CC(C)C)C(=O)O [LDLLDL, Leu-Asp-Leu-Leu-Asp-Leu] (H-LDLLDL-OH; N-terminus and C-terminus assumed)",cellular toxicity (cell death by microscopy),[1],Apparent cell death could not be observed
same,cellular toxicity (cell death by microscopy),[2],Apparent cell death could not be observed
same,cellular toxicity (cell death by microscopy),[3],Apparent cell death could not be observed
same,cellular toxicity (cell death by microscopy),[4],Apparent cell death could not be observed
same,solubility,[5],superior
LDLLDL-Cy7,fluorescence in the implanted tumors,[6],intense fluorescence
same,fluorescence uptake of LDLLDL-Cy7,"[7]; 3 hrs, 5 and 10 μM/mL, FIG. 4",no fluorescence uptake
same,fluorescence uptake,"[7]; peptide 5 uMol/uL, 4 hrs, control without FPR expression",not observed
same,binding affinity,[8],High binding affinity
same,uptake of LDLLDL-Cy7,[9],substantial uptake
same,uptake of LDLLDL-Cy7,"[10]; 3 hrs, 5 and 10 μM/mL, FIG. 4",weak uptake
same,cell associated fluorescence,"[10]; peptide 5 uMol/uL, 4 hrs, Her2 line",cell associated fluorescence
same,uptake of LDLLDL-Cy7,"[11]; 3 hrs, 5 and 10 μM/mL, FIG. 4",substantial uptake
same,cell associated fluorescence,"[11]; peptide 5 uMol/uL, 4 hrs, ER-positive luminal line",cell associated fluorescence
same,uptake of LDLLDL-Cy7,[12],weak uptake
same,fluorescence in the rest of the organs,[13]; [19],no significant fluorescence
same,uptake in the tumors (extracted organs imaged),[13]; [19],strong uptake
same,fluorescence in the implanted tumors,"[13]; tail vein injection, 6 hours after injection, FIG. 5",intense fluorescence
same,uptake of the peptide,[14],substantial uptake
same,fluorescence in the implanted tumors,[15],intense fluorescence
LDLLDL-^64Cu (LDLLDL-{PEGn-K(CB-TE2A)}; also: 64Cu chelated by CB-TE2A),uptake of the peptide,[16],reduced uptake
same,targeting specificity and sensitivity,[17],excellent specificity and sensitivity
same,uptake in PET image studies,[18],significantly high uptake

# Reference: patent publication US11795197B2, “Peptide compositions for immuno-oncology molecular imaging and targeted drug delivery” (Cedars-Sinai Medical Center, priority 2017, dated 2023)
